The values that follow come from patent US12193994B2, “Combination of a cell therapy and a gamma secretase inhibitor” (Juno Therapeutics, Inc., priority 2017, dated 2025).

One experiment relates to OPM2 target cells. As to the kind of experiment: Similar study: concentration dependence of anti-BCMA CAR-T cytolytic function. The note with it: Homo sapiens, OPM-2; OPM2, one exemplary donor; read-out: increasing anti-BCMA CAR-T killing of BCMA-expressing target cells, IC50. It counts as cell-based. As to the method: Anti-BCMA CAR-T cells generated as described in this Example above were cultured at 37° C. with either OPM2 or RPMI-8226 target cells at an effector to target (E:T) ratio of 0.3:1. The target cells were labeled with NucLight Red (NLR), to permit tracking of target cells by microscopy. Cultures were incubated in the absence of LY3039478 or in the presence of LY3039478 at concentrations of 0.1 nM, 1 nM, 10 nM, 100 nM, 1000 nM, 10000 nM or 100000 nM (the range covering the estimated human pharmacokinetic range is shown by the boxes in FIGS. 3A-3D). As a control, target cells were incubated with LY3039478 but without culture with CAR-T cells. Cytolytic activity was assessed by measuring the loss of viable target cells after about 150 hours, as determined by red fluorescent signal (using the IncuCyte® Live Cell Analysis System, Essen Bioscience). The area under the curve for killing observed during the culture period (˜150 hours) was determined. Percent lysis (% killing) was determined by normalizing the AUC for killing to cultures incubated without the inhibitor.
A similar study was carried out to further assess the effects of different concentrations of LY3039478, including concentrations within the estimated Cmax/Cmin for the inhibitor, on the cytolytic function of anti-BCMA CAR-T cells against OPM2 target cells.

Experiment [1] deals with OPM2 or RPMI-8226 target cells. Description: Cytokine production by anti-BCMA CAR-T cells co-cultured with target cells +/- LY3039478. It counts as cell-based, human. The note with it: 24 hours co-culture, vs absence of LY3039478. As to the method: The production of cytokines by anti-BCMA CAR-T cells in the presence or absence of LY3039478 was assessed by monitoring cytokine levels in the supernatants of co-cultures of CAR-T cells with BCMA-expressing target cells. CAR-T cells generated as described in this Example above were cultured with either OPM2 or RPMI-8226 target cells in the absence of LY3039478 or in the presence of LY3039478 at concentrations of 0.1 nM, 1 nM, 10 nM, 100 nM, 1000 nM, 10000 nM or 100000 nM (the range covering the estimated human pharmacokinetic range is shown by the boxes in FIGS. 3A-3D). Culture supernatants were harvested after 24 hours, and IFNγ and IL-2 were measured from the culture supernatants.

A further experiment concerns multiple myeloma tumor. Description: BCMA expression on tumors after oral LY3039478 in an alternative multiple myeloma tumor cell model. It counts as in vivo, mice. The note with it: 0.1 mg/kg or 1 mg/kg, two oral administrations. As to the method: Specifically, NOD.Cg.PrkdescidIL2rgtm1 Wjl/SzJ (NSG) mice were injected subcutaneously (s.c.) with 1E+07 RPMI-8226 cells modified to express GFP and firefly luciferase (RPMI-8226 ffluc) and tumors were allowed to grow. […]
FIG. 6 depicts analysis of blood samples, taken at 0, 0.5, 2, 6, 18, 24, 36, and 48 hour post-administration, for plasma levels of the drug. […] Tumor cells at 2 hours, 24 hours or 48 hours after administration of LY3039478 or vehicle control in the study were assessed for surface expression of BCMA.

For experiment [2], the system named is RPMI-8226 human multiple myeloma xenograft. The format is in vivo. As to the method:
Anti-tumor effects following administration of anti-BCMA CAR T cells and a gamma secretase inhibitor compound, LY3039478, each, individually, and in combination, were assessed in a RPMI-8226 human multiple myeloma xenograft mouse model. The anti-BCMA CAR-expressing T cells were generated as described in Example 2.
NOD.Cg.PrkdescidIL2rgtm1 Wjl/SzJ (NSG) mice were injected subcutaneously (s.c.) with 1E+07 RPMI-8226 cells modified to express GFP and firefly luciferase (RPMI-8226 ffluc), and tumor volume was allowed to increase over the course of 25 days, the 25th day being designated “day 0” in this study. Animals were divided into 8 groups, and each group received one of the following treatments: (1) vehicle only, (2) LY3039478 (3 mg/kg) only, (3) Mock T cells (not expressing the CAR) (3.00E+06 T cells per mouse) and vehicle, (4) Mock T cells (3.00E+06 T cells per mouse) and LY3039478 (3 mg/kg), (5) anti-BCMA CAR+ T cells (1.00E+06 CAR+ cells per mouse) and vehicle, (6) anti-BCMA CAR+ T cells (1.00E+06 CAR+ cells per mouse) and LY3039478 (3 mg/kg), (7) anti-BCMA CAR+ T cells (3.00E+06 CAR+ cells per mouse) and vehicle, or (8) anti-BCMA CAR+ T cells (3.00E+06 CAR+ cells per mouse) and LY3039478 (3 mg/kg). In each group, LY3039478 or vehicle was delivered by mouth (p.o.) at day-1 and at day zero (0) and every other day (e.o.d.) up to day 21. Where applicable, T cells were administered by a single intravenous (i.v.) injection on day 0.
CAR+ T cells in blood and in tumor were assessed on days 7, […], 21, and 28 by flow cytometry using antibodies specific for cell surface markers and a reagent specific to the anti-BCMA CAR. Animal survival was monitored throughout the study.
The presence of CAR+ T cells in the blood was monitored over the course of the study (from blood drawn on days 7, 14, 21 and 28 post CAR-T cell administration). White blood cells from blood samples were stained with various reagents to detect various markers on the surface of immune cells, including T cells, and expression of the CAR (including a reagent specific for the CAR and a reagent specific for a transduction marker encoded by the CAR vector).
Tumor digests were also analyzed to determine the number of CD4+ and CD8+ CAR+ T cells in tumors following the various treatment conditions. […] Serum BCMA was also assessed according to treatment condition.

Experiment [3] has as its system BCMA on the surface of multiple myeloma cells. As to the kind of experiment: BCMA surface expression on multiple myeloma cells in patients given oral LY3039478. The format is in vivo, human. The note with it: mean, three 25 mg oral doses. On the procedure:
Three human subjects having multiple myeloma were administered three 25 mg doses of the gamma secretase inhibitor (GSI) LY3039478 by mouth. The absolute B cell maturation antigen (BCMA) antibody binding capacity (ABC) on the surface of multiple myeloma cells was quantitated by flow cytometry performed on bone marrow aspirate specimens obtained from each of the patients prior to administration of the GSI, and immediately after the third oral GSI dose. A mean 66-fold increase in BCMA ABC was observed following GSI administration (FIG. 15A).

Where [4] appears, read: no CAR+ T cells, LY3039478 3 mg/kg p.o. alone or with Mock T cells 3.00E+06.

As to `C[C@H](NC(=O)CCC(F)(F)F)C(=O)N[C@@H]1C(=O)N(CCO)c2ncccc2-c2ccccc21` [LY3039478, 4,4,4-trifluoro-N-[(1S)-2-[[(7S)-5-(2-hydroxyethyl)-6-oxo-7H-pyrido[2,3-d][3]benzazepin-7-yl]amino]-1-methyl-2-oxo-ethyl]butanamide], the 50% inhibitory concentration (IC50) (as a rule, the concentration at which inhibition is half-maximal) in the experiment on OPM2 target cells lay within 0.1 to 0.25 nM. In experiment [1], the “production of IFN-gamma in supernatant” value was “increased” and the “production of IL-2 in supernatant” value is “increased”. Further, the “BCMA expression on tumors” value in the experiment on multiple myeloma tumor is on record as “Increased BCMA expression”. In experiment [2] (setting [4]), the “Day 65 Survival %” value is 0%, the “Median Survival” value came to 22.5 days and the Number of deaths is reported as 10. Also, the “surface BCMA MFI on RPMI-8226 tumor cells (tumor digests, flow cytometry)” value in experiment [2] (presence of LY3039478, days 7 and 15) is reported as “increased”. Besides, the “peripheral blood count of CD4+ or CD8+ T cells that did not express the anti-BCMA CAR” value in experiment [2] (treated with or without LY3039478) is “No changes”. Besides, in experiment [3] (three subjects, bone marrow aspirate), the “increase in BCMA antibody binding capacity (ABC) following GSI administration” value was 66 fold. In experiment [3] (35% (mean) before GSI), the “percentage of plasma cells with measurable surface BCMA expression following the three oral doses” value was 98.4%.
